Earlier results as cited in the Kinase Knowledgebase extract (Sharma et al. 2016).

Target: EGFR (UniProt P00533)
Sequence (P00533 whole entry, looked up): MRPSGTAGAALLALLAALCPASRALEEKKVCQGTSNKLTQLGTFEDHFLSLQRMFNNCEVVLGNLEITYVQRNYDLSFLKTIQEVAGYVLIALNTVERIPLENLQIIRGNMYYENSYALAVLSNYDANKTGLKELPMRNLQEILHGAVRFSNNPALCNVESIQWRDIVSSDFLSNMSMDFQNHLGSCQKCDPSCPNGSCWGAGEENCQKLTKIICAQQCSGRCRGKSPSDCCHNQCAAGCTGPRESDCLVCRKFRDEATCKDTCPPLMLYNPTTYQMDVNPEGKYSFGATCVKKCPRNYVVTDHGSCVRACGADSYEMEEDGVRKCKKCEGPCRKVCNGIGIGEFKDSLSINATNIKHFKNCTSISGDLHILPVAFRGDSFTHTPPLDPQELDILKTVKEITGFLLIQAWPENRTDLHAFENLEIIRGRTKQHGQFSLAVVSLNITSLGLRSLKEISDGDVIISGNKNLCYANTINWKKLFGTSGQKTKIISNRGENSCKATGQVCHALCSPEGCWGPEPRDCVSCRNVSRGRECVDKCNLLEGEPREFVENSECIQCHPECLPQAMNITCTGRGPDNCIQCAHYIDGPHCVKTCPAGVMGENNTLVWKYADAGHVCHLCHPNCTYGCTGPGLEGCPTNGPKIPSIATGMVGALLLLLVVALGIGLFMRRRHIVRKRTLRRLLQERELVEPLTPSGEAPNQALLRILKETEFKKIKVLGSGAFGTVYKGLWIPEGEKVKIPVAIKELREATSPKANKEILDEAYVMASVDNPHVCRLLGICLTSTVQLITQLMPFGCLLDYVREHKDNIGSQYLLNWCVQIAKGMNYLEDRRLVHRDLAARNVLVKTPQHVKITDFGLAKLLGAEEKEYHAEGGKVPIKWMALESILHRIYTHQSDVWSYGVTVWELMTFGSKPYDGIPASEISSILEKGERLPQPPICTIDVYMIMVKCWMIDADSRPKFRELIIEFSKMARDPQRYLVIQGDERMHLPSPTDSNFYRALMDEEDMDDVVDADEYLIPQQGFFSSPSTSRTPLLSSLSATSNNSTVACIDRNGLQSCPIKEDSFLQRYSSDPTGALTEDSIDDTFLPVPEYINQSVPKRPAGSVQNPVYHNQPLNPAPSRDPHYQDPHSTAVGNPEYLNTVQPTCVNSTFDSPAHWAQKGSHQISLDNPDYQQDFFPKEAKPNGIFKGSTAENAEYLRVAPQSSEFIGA

Compound | IC50 [nM]
COc1cc2c(Nc3cc(F)cc(Cl)c3F)ncnc2cc1OCC1CCN(C)CC1 | 450
CNc1ncc2ncnc(Nc3cccc(Br)c3)c2n1 | 0.75
c1ccc(Nc2ncnc3[nH]c4ccccc4c23)cc1 | 6920
COc1cc2c(Nc3cccc(Br)c3F)ncnc2cc1OC/C=C/CN1CCCC1 | 100
COc1cc2c(Nc3cccc(Br)c3F)ncnc2cc1OCCC1CCN(C)CC1 | 200
Brc1cccc(Nc2ncnc3cc(NCCN4CCOCC4)ncc23)c1 | 3
COc1cc2c(Nc3cccc(Cl)c3F)ncnc2cc1OCCN(C)c1ccncc1 | 300
CNC(=O)c1cc2c(Nc3cccc(Cl)c3)ncnc2[nH]1 | 3
COc1cc2c(Nc3cccc(Cl)c3F)ncnc2cc1OCCC1CCN(C)CC1 | 300
O=C(O)c1ccc(-c2cc3c(Nc4cccc(Cl)c4)ncnc3[nH]2)cc1 | 1
COc1cc2c(Nc3ccc(O)c(Cl)c3F)ncnc2cc1OCC1CCN(C)CC1 | 100
O=S(=O)(O)CCNc1cc2ncnc(Nc3cccc(Br)c3)c2cn1 | 1
O=C(O)CCCNc1cc2ncnc(Nc3cccc(Br)c3)c2cn1 | 0.2
CN(C)CCCNc1cc2ncnc(Nc3cccc(Br)c3)c2cn1 | 8
COc1cc2c(Nc3cccc(Cl)c3F)ncnc2cc1OCCCN1CCCC1 | 100
COc1cc2c(Nc3cccc(C)c3F)ncnc2cc1OCC1CCN(C)CC1 | 1000
Clc1cccc(Nc2ncnc3[nH]c(-c4ccccn4)cc23)c1 | 7
COc1cc2c(Nc3cccc(Br)c3F)ncnc2cc1OC[C@H]1CCCN(C)C1 | 100
COc1cc2c(Nc3cccc(Br)c3F)ncnc2cc1OCCCN1CCN(C)CC1 | 100

Compound | IC50 [nM]
COc1cc2c(Nc3cc(F)cc(Br)c3F)ncnc2cc1OCC1CCN(C)CC1 | 300
COc1cc2c(Nc3cccc(Br)c3F)ncnc2cc1OC[C@@H]1CCCN(C)C1 | 200
CN(CCO)c1cc2ncnc(Nc3cccc(Br)c3)c2cn1 | 2
Cc1[nH]c2ncnc(NCc3cccc(Cl)c3)c2c1C | 1070
COc1cc2c(Nc3cccc(Cl)c3F)ncnc2cc1OC[C@@H]1CCCN(C)C1 | 100
COc1cc2c(Nc3cccc(Cl)c3F)ncnc2cc1OCCCN1CCOCC1 | 100
CNc1cc2ncnc(Nc3cccc(C)c3)c2cn1 | 1
COc1cc2c(Nc3cccc(Cl)c3F)ncnc2cc1OCCN1CCOCC1 | 398
COCCOc1cc2ncnc(Nc3cccc(Cl)c3F)c2cc1OC | 100
COc1cc2c(Nc3cccc(C#N)c3F)ncnc2cc1OC/C=C/CN1CCCC1 | 794
COc1cc2c(Nc3cc(F)cc(Br)c3F)ncnc2cc1OCC1CCNCC1 | 450
COc1cc2c(Nc3cccc(Cl)c3F)ncnc2cc1OCCN1CCN(C)CC1 | 200
COc1cc2c(Nc3cccc(Br)c3F)ncnc2cc1OCCC1CCNCC1 | 200
COc1cc2c(Nc3cccc(Cl)c3F)ncnc2cc1OCC1CCNCC1 | 300
Nc1ccc(-c2cc3c(Nc4cccc(Cl)c4)ncnc3[nH]2)cc1 | 3
CN(CC(O)C(O)C(O)C(O)CO)c1cc2ncnc(Nc3cccc(Br)c3)c2cn1 (stereo unspecified) | 3
CN(C)c1cc2ncnc(Nc3cccc(Br)c3)c2cn1 | 0.089
CN(CC(=O)O)c1cc2ncnc(Nc3cccc(Br)c3)c2cn1 | 15
COc1ccc(-c2cc3c(Nc4cccc(Cl)c4)ncnc3[nH]2)cc1 | 15.1

Compound | IC50 [nM]
OCC(O)C(O)C(O)C(O)CNc1cc2ncnc(Nc3cccc(Br)c3)c2cn1 (stereo unspecified) | 4
COc1cc2c(Nc3cccc(C)c3F)ncnc2cc1OCC1CCNCC1 | 500
COc1cc2c(Nc3cccc(Cl)c3F)ncnc2cc1OCCCN1CCN(C)CC1 | 76
CN(CC(O)CO)c1cc2ncnc(Nc3cccc(Br)c3)c2cn1 (stereo unspecified) | 3
Cc1cccc(Nc2ncnc3cc(NCCCn4ccnc4)ncc23)c1 | 3.4
COc1cc2c(Nc3cccc(Cl)c3F)ncnc2cc1OC/C=C/CN1CCCC1 | 89
[O-][N+]1(CCCNc2cc3ncnc(Nc4cccc(Br)c4)c3cn2)CCOCC1 | 0.7
CN(C)CCCCCNc1cc2ncnc(Nc3cccc(Br)c3)c2cn1 | 8.3
CNc1cc2ncnc(Nc3cccc(Br)c3)c2cn1 | 0.1
COc1cc2c(Nc3cccc(Br)c3F)ncnc2cc1OCC1CCNCC1 | 200
COc1cc2c(Nc3cc(F)cc(Cl)c3F)ncnc2cc1OCC1CCNCC1 | 500
OCCN(CCO)CCNc1cc2ncnc(Nc3cccc(Br)c3)c2cn1 | 9
Oc1ccc(-c2cc3c(Nc4cccc(Cl)c4)ncnc3[nH]2)cc1 | 3
COc1cc2c(Nc3ccc(O)c(C)c3F)ncnc2cc1OCC1CCN(C)CC1 | 300
Clc1ncc2ncnc(Nc3cccc(Br)c3)c2n1 | 81
OCCNc1cc2ncnc(Nc3cccc(Br)c3)c2cn1 | 0.2
NNc1cc2ncnc(Nc3cccc(Br)c3)c2cn1 | 7
Nc1cccc(-c2cc3c(Nc4cccc(Cl)c4)ncnc3[nH]2)c1 | 3.9
